From patent US20160115146A1, “3-CARBOXY SUBSTITUTED COUMARIN DERIVATIVES WITH A POTENTIAL UTILITY FOR THE TREATMENT OF CANCER DISEASES” (UNIVERSITE CATHOLIQUE DE LOUVAIN, priority 2013, published 2016)

How the values were obtained:
SiHa cells [1] = test: Lactate consumption assay (inhibition of lactate influx); format: cell-based; details: Homo sapiens, 24 h treatment in lactate-containing medium
Method: SiHa cells were seeded on flat-bottom 24-well plates (500 000 cells/well) in normal DMEM. After 6 h of incubation, the culture medium was replaced by 1 ml of DMEM containing 10 mM lactate and incubated overnight for metabolic adaptation. Cells were then treated for 24 h with increasing concentrations of compounds (0.1, 1, 10 and 100 μM) in lactate-containing medium at 37° C. The supernatants were then centrifuged using deproteinizing columns (15 min, 10000 g at 4° C.) and lactate concentration was determined using the enzymatic assay commercialized by CMA Microdialysis AB on a CMA600 analyzer (Aurora Borealis).

SiHa cells [2] = test: Cytotoxicity/anti-proliferative MTT assay, lactate as energy source; format: cell-based; details: Homo sapiens, DMEM 10 mM L-lactate without glucose, 72 h
Method: SiHa cells (human cervix squamous carcinoma) were routinely cultured in DMEM containing serum and antibiotics as previously described in Sonveaux, P. et al. J. Clin. Invest 2008 118, 3930. Two distinct media were used for the cytotoxicity assay, either DMEM containing 25 mM D-glucose (without pyruvate) or DMEM containing 10 mM L-lactate (without glucose). SiHa cells were seeded in flat-bottom 96-well plates in normal DMEM. After 6 h of incubation, the culture medium was replaced by 100 μl of glucose- or lactate-containing medium and incubated overnight for metabolic adaptation. SiHa cells were treated with the compounds of the invention at a concentration range of 0.01 μM to 100 μM. After a 72 h incubation at 37° C., cell medium was removed and replaced by freshly prepared MTT in PBS (1 mg/ml, 100 μl/well). After a 3 h incubation at 37° C., the plates were centrifuged (1000 g, 10 min at 4° C.) and the supernatant was removed before addition of DMSO (100 μl/well). Plates were kept for 10 min in the dark before reading at the spectrophotometer (Victor X4).

SiHa cells [3] = test: [14C]-lactate uptake assay (inhibition of lactate influx); format: cell-based; details: Homo sapiens, 0.2 h, 2 μM [14C]-lactate for 12 min
Method: After 6 h of incubation, the culture medium was replaced by 1 ml of DMEM containing 10 mM lactate and incubated overnight for metabolic adaptation.

SiHa cells xenograft [4] = test: In vivo anti-cancer activity in combination with cisplatin against cervix cancer (SiHa cells xenograft model); details: nude NMRI mice, cisplatin 5 mg/kg IP day 0 and 7 plus compound 3 mg/kg daily IP day 1-6 and 8-11, FIG. 3
Method: (§1) Seven weeks old female nude mice (Janvier®, 4-5 mice per group, NMRI), were used for the experiments. SiHa cells were subcutaneously injected (2.10^6 cells in sterile NaCl 0.9% per mouse) on the left flank of the mice (100 μl/mouse). The treatment of the mice with compounds of the invention was started when tumor xenografts reached approximately 5 mm of length and width (Caliper® measurement). […] Tumor volume was calculated as the following: (length×width^2×π)/6 and expressed in mm^3. Tumor growth delay graphs and statistical analysis (Two-way ANOVA) were performed using GraphPad Prism 4 software.

SiHa cells xenograft [5] = test: In vivo anti-cancer activity against cervix cancer (SiHa cells xenograft model); details: nude NMRI mice, 3 mg/kg daily IP, FIG. 1(A)
Method: 7 weeks old female nude mice (Janvier®, 4-5 mice per group, Balb-c or NMRI) with various human cancer cell lines xenografts were used. SiHa cells were subcutaneously injected (10^6 to 2.10^6 (10^6 or 2.10^6) cells in sterile NaCl 0.9% per mouse) on the left flank of the mice (100 μl/mouse). […] Tumor volume was calculated as following: (length×width^2×π)/6 and expressed in mm^3. Tumor growth delay graphs and statistical analysis (Two-way ANOVA) were performed using GraphPad Prism 4 software.

HCT116 cells xenograft = test: In vivo anti-cancer activity against colon cancer (HCT116 cells xenograft model); details: nude NMRI mice, 3 mg/kg daily IP, FIG. 2
Method: as §1, with “HCT116” for “SiHa”

| Structure (SMILES) | CC50 (SiHa cells [2]) [nM] | further results |
| --- | --- | --- |
| COc1ccc2cc(C(=O)O)c(=O)oc2c1 [cpd 2, 7-methoxy-2-oxo-2H-chromene-3-carboxylic acid] | 9800 | IC50 (SiHa cells [1]): 2300 nM |
| O=C(O)c1cc2ccc(OCc3cc(C(F)(F)F)cc(C(F)(F)F)c3)cc2oc1=O [cpd 3, 7-((3,5-bis(trifluoromethyl)benzyl)oxy)-2-oxo-2H-chromene-3-carboxylic acid] | 600 |  |
| O=C(O)c1cc2ccc(OCc3cccc4ccccc34)cc2oc1=O [cpd 5, 7-(naphthalen-1-ylmethoxy) 2-oxo-2H-chromene-3-carboxylic acid] | 1090 |  |
| O=C(O)c1cc2ccc(OCc3cccc(F)c3)cc2oc1=O [cpd 7, 7-((3-fluorobenzyl)oxy)-2-oxo-2H-chromene-3-carboxylic acid] | 1170 |  |
| O=C(O)c1cc2ccc(OCc3ccccc3)cc2oc1=O [cpd 9, 7-(benzyloxy)-2-oxo-2H-chromene-3-cartboxylic acid] | 9100 | IC50 (SiHa cells [1]): 1900 nM |
| O=C(O)c1cc2ccc(OCc3ccccc3Cl)cc2oc1=O [cpd 11, 7-((2-chlorobenzyl)oxy)-2-oxo-2H-chromene-3-carboxylic acid] | 4230 |  |
| COc1cccc(COc2ccc3cc(C(=O)O)c(=O)oc3c2)c1 [cpd 13] | 4600 |  |
| O=C(O)c1cc2ccc(OCCc3ccccc3)cc2oc1=O [cpd 15, 2-oxo-7-phenethoxy-2H-chromene-3-carboxylic acid] | 5600 | IC50 (SiHa cells [1]): 2400 nM |
| CC(C)=CCC/C(C)=C/COc1ccc2cc(C(=O)O)c(=O)oc2c1 [cpd 17, (E)-7-((3,7-dimethylocta-2,6-dien-1-yl)oxy)-2-oxo-2H-chromene-3-carboxylic acid] | 11700 |  |
| O=C(O)c1cc2ccc(OCc3ccc(Cl)c(Cl)c3)cc2oc1=O [cpd 19, 7-((3,4-dichlorobenzyl)oxy)-2-oxo-2H-chromene-3-carboxylic acid] | 68400 |  |
| COc1ccc(OC)c(COc2ccc3cc(C(=O)O)c(=O)oc3c2)c1 [cpd 22] | 702 |  |
| O=C(O)c1cc2ccc(OCn3nnc4ccccc43)cc2oc1=O [cpd 24, 7-((1H-benzo[d][1,2,3]triazol-1-yl)methoxy)-2-oxo-2H-chromene-3-carboxylic acid] | 1100 |  |
| O=C(O)c1cc2ccc(OCc3ccc(F)cc3)cc2oc1=O [cpd 26, 7-((4-fluorobenzyl)oxy)-2-oxo-2H-chromene-3-carboxylic acid] | 3900 | IC50 (SiHa cells [1]): 1250 nM |
| O=C(O)c1cc2ccc(OCc3ccc(C(F)(F)F)cc3)cc2oc1=O [cpd 28, 2-oxo-7-((4-(trifluoromethyl)benzyl)oxy)-2H-chromene-3-carboxylic acid] | 6860 |  |
| O=C(O)c1cc2ccc(OC3Cc4ccccc4C3)cc2oc1=O [cpd 30, 7-((2,3-dihydro-1H-inden-2-yl)oxy)-2-oxo-2H-chromene-3-carboxylic acid] | 7800 |  |
| CN(Cc1ccccc1)c1ccc2cc(C(=O)O)c(=O)oc2c1 [cpd 31, 7-(benzyl(methyl)amino)-2-oxo-2H-chromene-3-carboxylic acid] | 220 | IC50 (SiHa cells [3]): 11 nM; IC50 (SiHa cells [1]): 59 nM; Delay in tumor relapse (tumor volume) (SiHa cells xenograft [4]): clear delay in tumor relapse; Tumor growth delay (tumor volume) (SiHa cells xenograft [5]): clear tumor growth delay; Tumor growth delay (tumor volume) (HCT116 cells xenograft): clear tumor growth delay |

| Structure (SMILES) | CC50 (SiHa cells [2]) [nM] | further results |
| --- | --- | --- |
| O=C(O)c1cc2ccc(N3CCCC3)cc2oc1=O [cpd 33, 2-oxo-7-(pyrrolidin-1-yl)-2H-chromene-3-carboxylic acid] | 14300 |  |
| O=C(O)c1cc2ccc(N3CCOCC3)cc2oc1=O [cpd 34, 7-morpholino-2-oxo-2H-chromene-3-carboxylic acid] | 17500 | IC50 (SiHa cells [1]): 7900 nM |
| CN(C)c1ccc2cc(C(=O)O)c(=O)oc2c1 [cpd 35, 7-(dimethlamino)-2-oxo-2H-chromene-3-carboxylic acid] | 2900 | IC50 (SiHa cells [1]): 1400 nM |
| O=C(O)c1cc2cc3c4c(c2oc1=O)CCCN4CCC3 [cpd 37, 11-oxo-2,3,5,6,7,11-hexahydro-1H-pyrano[2,3 - f]pyrido[3,2,1-ij]quinoline-10-carboxylic acid] | 1200 | IC50 (SiHa cells [1]): 1300 nM |
| O=C(O)c1cc2ccc(NCc3ccccc3)cc2oc1=O [cpd 39, 7-(benzylamino)-2-oxo-2H-chromene-3-carboxylic acid] | 1790 |  |
| CCN(Cc1ccccc1)c1ccc2cc(C(=O)O)c(=O)oc2c1 [cpd 41, 7-(benzyl(ethyl)amino)-2-oxo-2H-chromene-3-carboxylic acid] | 1900 |  |
| CC(C)CN(Cc1ccccc1)c1ccc2cc(C(=O)O)c(=O)oc2c1 [cpd 43, 7-(benzyl(isobutyl)amino)-2-oxo-2H-chromene-3-carboxylic acid] | 16300 |  |
| CCCN(Cc1ccccc1)c1ccc2cc(C(=O)O)c(=O)oc2c1 [cpd 44, 7-(benzyl(propyl)amino)-2-oxo-2H-chromene-3-carboxylic acid] | 11100 |  |
| CC(C)CN(C)c1ccc2cc(C(=O)O)c(=O)oc2c1 [cpd 45, 7-(isobutyl(methyl)amino)-2-oxo-2H-chromene-3-carboxylic acid] | 220 |  |
| CN(Cc1cccs1)c1ccc2cc(C(=O)O)c(=O)oc2c1 [cpd 46, 7-(methyl(thiophen-2-ylmethyl)amino)-2-oxo-2H-chromene-3-carboxylic acid] | 210 |  |
| CN(Cc1cccc(F)c1)c1ccc2cc(C(=O)O)c(=O)oc2c1 [cpd 47, 7-((3-fluorobenzyl)(methyl)amino)-2-oxo-2H-chromene-3-carboxylic acid] | 40 |  |
| CN(CC1CCCCC1)c1ccc2cc(C(=O)O)c(=O)oc2c1 [cpd 48, 7-((cyclohexylmethyl)(methyl)amino)-2-oxo-2H-chromene-3-carboxylic acid] | 200 |  |
| COc1cccc(CN(C)c2ccc3cc(C(=O)O)c(=O)oc3c2)c1 [cpd 49, 7-((3-methoxybenzyl)(methyl)amino)-2-oxo-2H-chromene-3-carboxylic acid] | 70 |  |
| CN(CC1CCOCC1)c1ccc2cc(C(=O)O)c(=O)oc2c1 [cpd 50, 7-(methyl((tetrahydro-2H-pyran-4-yl)methyl)amino)-2-oxo-2H-chromene-3-carboxylic acid] | 100 |  |
| O=C(O)c1cc2ccc(N(Cc3ccccc3)Cc3ccccc3)cc2oc1=O [cpd 51, 7-(dibenzylamino)-2-oxo-2H-chromene-3-carboxylic acid] | 12700 |  |
| O=C(Nc1ccc2cc(C(=O)O)c(=O)oc2c1)c1ccccc1 [cpd 116, 7-benzamido-2-oxo-2H-chromene-3-carboxylic acid] | 1500 |  |
